Experiments:
Type in all cases: cell-based, Dickeya dadantii 3937 (Ech3937)
[1] = system: hrpA promoter; assay: hrpA promoter activity, GFP reporter plasmid phrpA, flow cytometry (FACS); conditions: for expression of hrpA, GFP intensity (Mean Fluorescence Intensity), Ech3937 carrying phrpA: MM + 0.1 mM compound
Method: FACS analysis of promoter activity of dspE, hrpA, hrpL, hrpN, and hrpS was carried out as described (Peng et al., 2006). Briefly, the wild-type Ech3937 and the mutant strains carrying the promoter reporter plasmid were grown on LB broth at 28° C. overnight and transferred to appropriate media. For FACS analysis, samples were collected by centrifugation, washed with 1× phosphate buffer saline (PBS) at 13,000 rpm for 1 min, and re-suspended in 1×PBS to ca 10^6 CFU/ml prior to being run in a FACS Calibur flow cytometer (BD Biosciences, CA). Three replicates were performed for each treatment.
To identify potential compounds that repress activation of T3SS, analogs and isomers of TCA and intermediates of salicylic acid and phenypropanoid biosynthesis pathways in plants were further screened for their effect on Ech3937 hrpA expression by flow cytometry (Table 9). A green fluorescent protein (GFP) reporter plasmid phrpA (pProbe-AT derivative with PCR fragment containing hrpA promoter region) was constructed, resulting in a transcriptional fusion of hrpA promoter with GFP gene. Bacterial cells containing phrpA plasmid were grown in MM supplemented with 0.1 mM of each compound. GFP intensity, which is a measurement of hrpA promoter activity, was measured by flow cytometry.

[2] = system: hrpN promoter; assay: hrpN promoter activity, GFP reporter plasmid phrpN, flow cytometry (FACS)
[3] = system: Ech3937; assay: Growth of Ech3937 in MM supplemented with compound; conditions: 0.05, 0.1 and 0.2 mM in MM (FIGS. 2A, 2B)
Source text: Phenolic compounds constitute an important class of organic substances produced by plants. The phenolic compound SA is a signaling molecule that plays a role in host defenses. OCA and TCA are the biosynthetic precursors of SA and are also reported to induce the expression of defense-related genes in plants. OCA, TCA, and SA were examined to elucidate their effects on the expression of T3SS genes. The expression of the T3SS gene hrpN was examined in MM and MM supplemented with OCA, TCA, and SA, at concentrations of 0.05, 0.1, and 0.2 mM, respectively. FIGS. 2A and 2B show the promoter activities of hrpN in Dickeya dadantii 3937 (Ech3937) grown in MM and MM supplemented with 0.05, 0.1, and 0.2 mM OCA, TCA, and SA at 12 h (FIG. 2A) and 24 h (FIG. 2B) post-inoculation. GFP intensity was determined on gated populations of bacterial cells by flow cytometry and analyzed with the Cell Quest software (BD Biosciences, San Jose, Calif.). The growth of Ech3937 in MM supplemented with different concentrations of OCA, TCA and SA was recorded. Compared with MM alone, the average GFP fluorescence intensity of bacterial cells of Ech3937 (phrpN) was increased approximately 4-fold when 0.05 mM of OCA and TCA were added to the medium (FIGS. 2A, 2B).
The expression of the T3SS gene hrpA was further examined in MM and MM supplemented with PCA at concentrations of 0.001, 0.005, 0.01, 0.05 and 0.1 mM respectively. FIGS. 16A and 16B show the promoter activities of hrpA in Dickeya dadantii 3937 (Ech3937) grown in minimum medium (MM) and MM supplemented with different amount of p-coumaric acid (PCA) at 12 h (FIG. 16A) and 24 h (FIG. 16B) post-inoculation. GFP intensity was determined on gated populations of bacterial cells by flow cytometry and analyzed with the Cell Quest software (BD Biosciences, San Jose, Calif.). The growth of Ech3937 in MM supplemented with different concentrations of PCA was recorded. Compared with MM alone, the average GFP fluorescence intensity of bacterial cells of Ech3937 (phrpA) was reduced more than 4-fold when 0.05 and 0.1 mM of PCA were added to the medium (FIGS. 16A, 16B).

## O=C(O)[C@@H]1C[C@H]1c1ccccc1 (relative stereo) [trans-2-Phenylcyclopropane-1-carboxylic acid]
[1]; 6 h (Table 9)
  expression of hrpA, GFP intensity (Mean Fluorescence Intensity), Ech3937 carrying phrpA: 7.2 ± 0.1
[1]; 12 h (Table 9)
  expression of hrpA, GFP intensity (Mean Fluorescence Intensity), Ech3937 carrying phrpA: 67.0 ± 18.4
[1]; 24 h (Table 9)
  expression of hrpA, GFP intensity (Mean Fluorescence Intensity), Ech3937 carrying phrpA: 84.0 ± 14.3

## O=C(O)C=Cc1ccccc1Cl [2-Chlorocinnamic acid]
[1]; 6 h (Table 9)
  expression of hrpA, GFP intensity (Mean Fluorescence Intensity), Ech3937 carrying phrpA: 25.7 ± 0.2
[1]; 12 h (Table 9)
  expression of hrpA, GFP intensity (Mean Fluorescence Intensity), Ech3937 carrying phrpA: 166.2 ± 17.8
[1]; 24 h (Table 9)
  expression of hrpA, GFP intensity (Mean Fluorescence Intensity), Ech3937 carrying phrpA: 319.8 ± 48.3

## Cc1ccccc1C=CC(=O)O [2-Methylcinnamic acid]
[1]; 6 h (Table 9)
  expression of hrpA, GFP intensity (Mean Fluorescence Intensity), Ech3937 carrying phrpA: 22.8 ± 0.6
[1]; 12 h (Table 9)
  expression of hrpA, GFP intensity (Mean Fluorescence Intensity), Ech3937 carrying phrpA: 157.2 ± 11.7
[1]; 24 h (Table 9)
  expression of hrpA, GFP intensity (Mean Fluorescence Intensity), Ech3937 carrying phrpA: 342.5 ± 16.6

## OCC=Cc1ccccc1 [Cinnamyl alcohol]
[1]; MM + 0.1 mM compound (Table 9)
  effect on expression of hrpA (screen result): inhibitors of the expression of hrpA
[1]; 6 h (Table 9)
  expression of hrpA, GFP intensity (Mean Fluorescence Intensity), Ech3937 carrying phrpA: 6.3 ± 0.1
[1]; 12 h (Table 9)
  expression of hrpA, GFP intensity (Mean Fluorescence Intensity), Ech3937 carrying phrpA: 27.8 ± 5.0
[1]; 24 h (Table 9)
  expression of hrpA, GFP intensity (Mean Fluorescence Intensity), Ech3937 carrying phrpA: 53.8 ± 2.9

## O=C(O)CCc1ccccc1 [Hydrocinnamic acid]
[1]; 6 h (Table 9)
  expression of hrpA, GFP intensity (Mean Fluorescence Intensity), Ech3937 carrying phrpA: 13.7 ± 1.0
[1]; 12 h (Table 9)
  expression of hrpA, GFP intensity (Mean Fluorescence Intensity), Ech3937 carrying phrpA: 200.3 ± 35.8
[1]; 24 h (Table 9)
  expression of hrpA, GFP intensity (Mean Fluorescence Intensity), Ech3937 carrying phrpA: 213.5 ± 18.9

## COC(=O)/C=C/c1ccccc1 [Methyl trans-cinnamate]
[1]; 6 h (Table 9)
  expression of hrpA, GFP intensity (Mean Fluorescence Intensity), Ech3937 carrying phrpA: 9.7 ± 0.1
[1]; 12 h (Table 9)
  expression of hrpA, GFP intensity (Mean Fluorescence Intensity), Ech3937 carrying phrpA: 135.8 ± 8.1
[1]; 24 h (Table 9)
  expression of hrpA, GFP intensity (Mean Fluorescence Intensity), Ech3937 carrying phrpA: 219.2 ± 14.5

## O=C(O)COc1ccccc1 [Phenoxyacetic acid]
[1]; 6 h (Table 9)
  expression of hrpA, GFP intensity (Mean Fluorescence Intensity), Ech3937 carrying phrpA: 18.0 ± 3.1
[1]; 12 h (Table 9)
  expression of hrpA, GFP intensity (Mean Fluorescence Intensity), Ech3937 carrying phrpA: 222.7 ± 64.3
[1]; 24 h (Table 9)
  expression of hrpA, GFP intensity (Mean Fluorescence Intensity), Ech3937 carrying phrpA: 205.7 ± 11.8

## O=C(O)c1ccccc1O [SA, salicylic acid, reference compound]
[2]; 0.05, 0.1 and 0.2 mM in MM, 12 h and 24 h (FIGS. 2A, 2B)
  effect on GFP fluorescence intensity of Ech3937 (phrpN) compared with MM alone: did not result in increased GFP fluorescence intensity
[2]; MM + 0.2 μM compound, 12 h
  GFP Intensity of Ech3937 (phrpN): 53.7 ± 4.0
[2]; MM + 0.2 μM compound, 24 h
  GFP Intensity of Ech3937 (phrpN): 105 ± 28
[2]; MM + 0.5 μM compound, 12 h
  GFP Intensity of Ech3937 (phrpN): 49.5 ± 5.9
[2]; MM + 0.5 μM compound, 24 h
  GFP Intensity of Ech3937 (phrpN): 99.5 ± 18
[2]; MM + 5 μM compound, 12 h
  GFP Intensity of Ech3937 (phrpN): 49.9 ± 2.9
[2]; MM + 5 μM compound, 24 h
  GFP Intensity of Ech3937 (phrpN): 97.7 ± 9.0
[2]; MM + 10 μM compound, 12 h
  GFP Intensity of Ech3937 (phrpN): 52.0 ± 2.3
[2]; MM + 10 μM compound, 24 h
  GFP Intensity of Ech3937 (phrpN): 104 ± 3.1
[3]
  bacterial growth of Ech3937 in supplemented MM: No reduction of bacterial growth

## O=C(O)/C=C/c1cccc(O)c1 [m-Coumaric acid]
[1]; 6 h (Table 9)
  expression of hrpA, GFP intensity (Mean Fluorescence Intensity), Ech3937 carrying phrpA: 12.1 ± 0.0
[1]; 12 h (Table 9)
  expression of hrpA, GFP intensity (Mean Fluorescence Intensity), Ech3937 carrying phrpA: 133.0 ± 38.2
[1]; 24 h (Table 9)
  expression of hrpA, GFP intensity (Mean Fluorescence Intensity), Ech3937 carrying phrpA: 203.3 ± 9.6

## O=C(O)/C=C/c1cccnc1 [trans-3-(3-Pyridyl)acrylic acid]
[1]; 6 h (Table 9)
  expression of hrpA, GFP intensity (Mean Fluorescence Intensity), Ech3937 carrying phrpA: 13.1 ± 0.4
[1]; 12 h (Table 9)
  expression of hrpA, GFP intensity (Mean Fluorescence Intensity), Ech3937 carrying phrpA: 184.9 ± 35.6
[1]; 24 h (Table 9)
  expression of hrpA, GFP intensity (Mean Fluorescence Intensity), Ech3937 carrying phrpA: 204.0 ± 16.8

## O=C(O)/C=C/c1c[nH]c2ccccc12 [trans-3-indoleacrylic acid]
[1]; 6 h (Table 9)
  expression of hrpA, GFP intensity (Mean Fluorescence Intensity), Ech3937 carrying phrpA: 7.9 ± 0.2
[1]; 12 h (Table 9)
  expression of hrpA, GFP intensity (Mean Fluorescence Intensity), Ech3937 carrying phrpA: 23.9 ± 1.3
[1]; 24 h (Table 9)
  expression of hrpA, GFP intensity (Mean Fluorescence Intensity), Ech3937 carrying phrpA: 121.0 ± 6.2

Reference: US20100249234A1, “METHODS OF REDUCING VIRULENCE IN BACTERIA” (UWM RESEARCH FOUNDATION, INC., priority 2007, published 2010)
